Where two headings read alike, the source gives them in different places.
Test system: HCMV
Format: cell-based
Description: In example herpesvirus PRM assay methods shown herein, cell pellets were lysed in 2% SDS, 100 mM NaCl, 0.5 mM EDTA, 50 mM Tris, pH 8.2, and 50 μg of protein was reduced and alkylated with 25 mM TCEP and 50 mM CAM respectively for 20 min at 70° C. Proteins were then precipitated via methanol chloroform precipitation (Wessel & Flugg, Anal Biochem. 138(1):141-143, 1984), resuspended in 50 mM HEPES, pH 8.2 and digested overnight with trypsin (50:1 protein:enzyme w/w ratio). Digested peptides were desalted by SDB-RPS StageTip as previously described (Lum et al., Cell Syst., 7(6):[…], 2018; Greco et al., Methods Mol Biol 1410:39-63, 2016; Federspiel & Cristea, Methods Mol Biol., 1977:115-143, 2019).
Peptides (1.0 μg on column) were analyzed by LC-MS/MS using a Dionex Ultimate 3000 UHPLC coupled online to an EASYSpray ion source and a Q Exactive HF. Peptides were separated on an EASYSpray C18 column (75 μm×25 cm) heated to 50° C. using a linear gradient of 5% B to 32% B over 60 min at a flow rate of 250 nL/min and were ionized at 1.7 kv. Mobile phase A consisted of 0.1% FA in H2O and mobile phase B consisted of 0.1% FA, 2.9% H2O in ACN.
The PRM method was controlled by a peptide inclusion list with retention time windows of 6 min for selected precursor ions.
The PRM assay was developed and analyzed using the open-source software Skyline (Maclean et al., Bioinformatics 26(7):966-968, 2010). Summed area under the curve of 3-4 transitions per peptide was used for quantitation. Targeted peptides were normalized to host protein loading control peptides. Peptide values for each sample were scaled to the average of each peptide across all runs. The average of multiple peptides was used as the inferred value for the protein measurement when more than one peptide was quantified (Federspiel et al., PLoS Biol. 17(9):e3000437. Doi: 10.1371/journal.pbio.3000437). PRM quantitation data were graphed using the Python Seaborn and Matplotlib libraries.
MRC5 primary human fibroblasts (HFs) (ATCC CCL-171) were used as the model system for HSV-1 and HCMV infections and were cultured in complete growth medium (DMEM supplemented with 10% fetal bovine serum and 1% penicillin-streptomycin antibiotics) at 37° C. and 5% CO2. iSLK.219 cells harboring latent KSHV (a gift from Dr. Britt Glaunsinger, University of California, Berkeley) were grown in complete growth medium supplemented with 500 μg/ml hygromycin (ThermoFisher Scientific, 10687010) at 37° C. and 5% CO2. All cells were used for experiments within a maximum of 10 passages.
Wild type HSV-1 strain 17+ (a gift from Beate Sodeik, Hannover Medical School, Hannover, Germany) was propagated as previously described (Diner et al., 2015). Briefly, PO stocks were generated by electroporating pBAC-HSV-1 into U-2 OS cells. […] In a similar manner, wild type HCMV strain AD169 was produced from BAC electroporation into HFs and working stocks were propagated by infecting HFs at a low level. In both cases, cell-associated virus was released by sonication, combined with supernatant virus, then concentrated by ultracentrifugation (20,000 rpm, 2 hours, 4° C. with SW28 swinging bucket rotor [Beckman Coulter]) over a 10% ficoll (HSV-1) or 20% sorbitol (HCMV) cushion. Virus stock titers were determined by plaque assay for HSV-1 or tissue culture infectious dose (TCID50) for HCMV and infections were performed at a multiplicity of infection (MOI) of 3.
12 hours prior to virus infection or reactivation, cells were treated with either the small molecule drug or DMSO/PBS control at an equivalent volume. […] For infection cycles lasting longer than 24 hours, small molecule drugs were re-added to the cell culture medium every 24 hours. Upon collection, cells were rinsed with PBS, scraped into a microcentrifuge tube, pelleted by centrifugation, and rinsed again with PBS.

Nc1ccn(C[C@@H](CO)OCP(=O)(O)O)c(=O)n1 [CDV, cidofovir]
UL80 (P16753) protein, numerical value of heatmap FIG. 6C (L, timepoint 96): 1.017
UL82 (P06726) protein, numerical value of heatmap FIG. 6C (L, timepoint 96): 0.9932
UL87 (P16730) protein, numerical value of heatmap FIG. 6C (L, timepoint 96): 0.3187
UL88 (P16731) protein, numerical value of heatmap FIG. 6C (L, timepoint 96): 0.6827
UL94 (P16800) protein, numerical value of heatmap FIG. 6C (L, timepoint 96): 0.8521
UL99 (P13200) protein, numerical value of heatmap FIG. 6C (L, timepoint 96): 0.9111
UL103 (P16734) protein, numerical value of heatmap FIG. 6C (L, timepoint 96): 0.899
UL117 (P16770) protein, numerical value of heatmap FIG. 6C (L, timepoint 96): 0.5858
gH (P12824) protein, numerical value of heatmap FIG. 6C (L, timepoint 96): 1.268
gL (P16832) protein, numerical value of heatmap FIG. 6C (L, timepoint 96): 0.676
gM (P16733) protein, numerical value of heatmap FIG. 6C (L, timepoint 96): 0.9966
gN (P16795) protein, numerical value of heatmap FIG. 6C (L, timepoint 96): 0.6947
sp|P16809|IR11_HCMVA (P16809) protein, numerical value of heatmap FIG. 6C (L, timepoint 96): 0.6961
CVC1 (P16799) protein, numerical value of heatmap FIG. 6C (L, timepoint 120): 0.8775
GO (P16750) protein, numerical value of heatmap FIG. 6C (L, timepoint 120): 0.821
MCP (P16729) protein, numerical value of heatmap FIG. 6C (L, timepoint 120): 1.664
SCP (Q7M6N6) protein, numerical value of heatmap FIG. 6C (L, timepoint 120): 1.225
TRM2 (P16792) protein, numerical value of heatmap FIG. 6C (L, timepoint 120): 1.244
UL22A (P16845) protein, numerical value of heatmap FIG. 6C (L, timepoint 120): 1.64
UL25 (P16761) protein, numerical value of heatmap FIG. 6C (L, timepoint 120): 1.445
UL29 (P16764) protein, numerical value of heatmap FIG. 6C (L, timepoint 120): 1.329
UL30 (P16765) protein, numerical value of heatmap FIG. 6C (L, timepoint 120): 0.9125
UL31 (P16848) protein, numerical value of heatmap FIG. 6C (L, timepoint 120): 1.094
UL43 (P16781) protein, numerical value of heatmap FIG. 6C (L, timepoint 120): 1.1093
UL52 (P16793) protein, numerical value of heatmap FIG. 6C (L, timepoint 120): 1.493
UL76 (P16725) protein, numerical value of heatmap FIG. 6C (L, timepoint 120): 0.7396
UL79 (P16752) protein, numerical value of heatmap FIG. 6C (L, timepoint 120): 0.8598
UL80 (P16753) protein, numerical value of heatmap FIG. 6C (L, timepoint 120): 1.249
UL82 (P06726) protein, numerical value of heatmap FIG. 6C (L, timepoint 120): 1.469
UL87 (P16730) protein, numerical value of heatmap FIG. 6C (L, timepoint 120): 0.5716
UL88 (P16731) protein, numerical value of heatmap FIG. 6C (L, timepoint 120): 0.8088
UL94 (P16800) protein, numerical value of heatmap FIG. 6C (L, timepoint 120): 1.266
UL99 (P13200) protein, numerical value of heatmap FIG. 6C (L, timepoint 120): 1.628
UL103 (P16734) protein, numerical value of heatmap FIG. 6C (L, timepoint 120): 1.157
UL117 (P16770) protein, numerical value of heatmap FIG. 6C (L, timepoint 120): 0.837
gH (P12824) protein, numerical value of heatmap FIG. 6C (L, timepoint 120): 1.57
gL (P16832) protein, numerical value of heatmap FIG. 6C (L, timepoint 120): 1.175
gM (P16733) protein, numerical value of heatmap FIG. 6C (L, timepoint 120): 1.476
gN (P16795) protein, numerical value of heatmap FIG. 6C (L, timepoint 120): 1.396
sp|P16809|IR11_HCMVA (P16809) protein, numerical value of heatmap FIG. 6C (L, timepoint 120): 0.7634
TRX2 (P16728) protein, numerical value of heatmap FIG. 6C (LL, timepoint 24): 0.008754
UL69 (P16749) protein, numerical value of heatmap FIG. 6C (LL, timepoint 24): 0.1676
UL70 (P17149) protein, numerical value of heatmap FIG. 6C (LL, timepoint 24): 0.06824
UL83 (P06725) protein, numerical value of heatmap FIG. 6C (LL, timepoint 24): 0.03389
UL132 (P69338) protein, numerical value of heatmap FIG. 6C (LL, timepoint 24): 0.04048
US15 (P09718) protein, numerical value of heatmap FIG. 6C (LL, timepoint 24): 0.5879
DUT (P16824) protein, numerical value of heatmap FIG. 6C (LL, timepoint 48): 0.2905
TRX1 (P16783) protein, numerical value of heatmap FIG. 6C (LL, timepoint 48): 0.01277
TRX2 (P16728) protein, numerical value of heatmap FIG. 6C (LL, timepoint 48): 0.01952
UL24 (P16760) protein, numerical value of heatmap FIG. 6C (LL, timepoint 48): 0.107
UL40 (P16780) protein, numerical value of heatmap FIG. 6C (LL, timepoint 48): 0.3905

Source: US20240027453A1, “METHOD FOR DETECTION AND QUANTITATIVE MONITORING OF INFECTIONS WITH HERPESVIRUSES” (The Trustees of Princeton University, priority 2020, published 2024)
